Like-named read-outs stand apart in the source and are kept apart here.
Assays:
Factor 11 protein = Factor 11 protein in monkey plasma by sandwich ELISA (Example 45); assay type: in vivo, cynomolgus monkeys; settings: for Inhibition of Factor 11 protein relative to the PBS control: plasma ELISA
Description: (§1) Groups, each consisting of two male and three female monkeys, were injected subcutaneously with ISIS 416838, ISIS 416850, ISIS 416858, ISIS 416864, or ISIS 417002 in escalating doses. Antisense oligonucleotide was administered to the monkeys at 5 mg/kg three times per a week for week 1; 5 mg/kg twice per week for weeks 2 and 3; 10 mg/kg three times per week for week 4; 10 mg/kg twice per week for weeks 5 and 6; 25 mg/kg three times per week for week 7; and 25 mg/kg twice per week for weeks 8, 9, 10, 11, and 12. One control group, consisting of two male and three female monkeys, was injected subcutaneously with PBS according to the same dosing regimen. An additional experimental group, consisting of two male and three female monkeys, was injected subcutaneously with ISIS 416850 in a chronic, lower dose regimen. Antisense oligonucleotide was administered to the monkeys at 5 mg/kg three times per week for week 1; 5 mg/kg twice per week for week 2 and 3; 10 mg/kg three times per week for week 4; and 10 mg/kg twice per week for weeks 5 to 12. Body weights were measured weekly. Blood samples were collected 14 days and 5 days before the start of treatment and subsequently once per week for Factor 11 protein activity analysis in plasma, fibrinogen measurement, PT and aPTT measurements, bleeding times, and measurement of various hematologic factors. On day 85, the monkeys were euthanized by exsanguination while under deep anesthesia, and organs harvested for further analysis.
Plasma samples from all monkey groups taken on different days were analyzed by a sandwich-style ELISA assay (Affinity Biologicals Inc.) using an affinity-purified polyclonal anti-Factor 11 antibody as the capture antibody and a peroxidase-conjugated polyclonal anti-Factor 11 antibody as the detecting antibody. Monkey plasma was diluted 1:50 for the assay. Peroxidase activity was expressed by incubation with the substrate o-phenylenediamine. The color produced was quantified using a microplate reader at 490 nm and was considered to be proportional to the concentration of Factor 11 in the samples.
The results are presented in Table 115, expressed as percentage reduction relative to that of the PBS control.

[1] = Tolerability in CD1 mice: hematology assays (Example 41); settings: 50 mg/kg s.c. twice per week for 6 weeks, blood
[2] = Tolerability in CD1 mice: body weight and organ weights (Example 37); settings: 50 mg/kg s.c. twice per week for 6 weeks
Description: Body weight was measured at the onset of the study and subsequently twice per week. The body weights of the mice are presented in Table 80 and are expressed increase in grams over the PBS control weight taken before the start of treatment. Liver, spleen, and kidney weights were measured at the end of the study, and are also presented in Table 80 as percentage of the body weight.

[3] = mouse, in vivo, sc, 50 mg/kg
[4] = Bleeding assay, Surgicutt Jr. device (Example 45); assay type: in vivo, cynomolgus monkeys; parameters: unit not given here
Description: as §1
On different days during the treatment period, bleeding assay was performed using a Surgicutt Jr. device (ITC, New Jersey). Monkeys were placed in monkey chair with their arm placed in a steady support. The arm was lightly shaved and a sphygmomanometer was placed on the upper arm. The cuff of the sphygmomanometer was inflated to 40 mm Hg and this pressure was maintained throughout the procedure. The area on the upper arm to be incised was cleansed with an antiseptic swab and the Surgicutt Jr device was used to make an incision over the lateral aspect, volar surface of the forearm, parallel to and 5 cm below the antecubital crease. At the exact moment the incision was made, a stopwatch was started. Every 30 seconds, blood from the incision was blotted out using a blotting paper without directly touching the incision, so that formation of the platelet plug was not disturbed. Blood was blotted out every 30 seconds until blood no longer stained the paper. The stopwatch was then stopped and the bleeding time determined. The sphygmomanometer was removed from the animal's arm, the incision site was antiseptically swabbed and a wound closure strip applied. The ISIS oligonucleotide, ISIS 416850, given with the chronic dose regimen is distinguished from the other oligonucleotides with an asterisk (*).

[5] = day 15, escalating dose regimen
[6] = day 22, escalating dose regimen
[7] = day 36, escalating dose regimen
[8] = day 43, escalating dose regimen
[9] = day 57, escalating dose regimen
[10] = day 64, escalating dose regimen
[11] = day 78, escalating dose regimen
[12] = day 85, escalating dose regimen
[13] = day −5, escalating dose regimen
[14] = day −14, escalating dose regimen

For “ISIS 416850: MOE gapmer, nucleobases 1275 to 1318 of SEQ ID NO: 1 (Table 8) (antisense TGCACAGTTTCTGGCAGGCC; MOE gapmer, wing and gap sizes not given here)”, the “Factor 11 protein levels in plasma” value (Factor 11 protein; cynomolgus monkeys, escalating dose regimen, ELISA) was “time-dependent decrease in protein levels”, the “Inhibition of Factor 11 protein relative to the PBS control” value (Factor 11 protein; day 8, chronic, lower dose regimen (*)) was 6% and the “Inhibition of Factor 11 protein relative to the PBS control” value (Factor 11 protein; day 8, escalating dose regimen) was 8%. The “Inhibition of Factor 11 protein relative to the PBS control” value (Factor 11 protein; day 15, chronic, lower dose regimen (*)) was 13%, the “Inhibition of Factor 11 protein relative to the PBS control” value (Factor 11 protein; [5]) was 4% and the “Inhibition of Factor 11 protein relative to the PBS control” value (Factor 11 protein; day 22, chronic, lower dose regimen (*)) was 12%. For the same substance, the “Inhibition of Factor 11 protein relative to the PBS control” value (Factor 11 protein; [6]) was 11%, the “Inhibition of Factor 11 protein relative to the PBS control” value (Factor 11 protein; day 29, chronic, lower dose regimen (*)) was 20% and the “Inhibition of Factor 11 protein relative to the PBS control” value (Factor 11 protein; day 29, escalating dose regimen) was 15%. The “Inhibition of Factor 11 protein relative to the PBS control” value (Factor 11 protein; day 36, chronic, lower dose regimen (*)) was 22%, the “Inhibition of Factor 11 protein relative to the PBS control” value (Factor 11 protein; [7]) was 17% and the “Inhibition of Factor 11 protein relative to the PBS control” value (Factor 11 protein; day 43, chronic, lower dose regimen (*)) was 24%. The “Inhibition of Factor 11 protein relative to the PBS control” value (Factor 11 protein; [8]) was 23%, the “Inhibition of Factor 11 protein relative to the PBS control” value (Factor 11 protein; day 50, chronic, lower dose regimen (*)) was 30% and the “Inhibition of Factor 11 protein relative to the PBS control” value (Factor 11 protein; day 50, escalating dose regimen) was 42%. For the same substance, the “Inhibition of Factor 11 protein relative to the PBS control” value (Factor 11 protein; day 57, chronic, lower dose regimen (*)) was 34%, the “Inhibition of Factor 11 protein relative to the PBS control” value (Factor 11 protein; [9]) was 49% and the “Inhibition of Factor 11 protein relative to the PBS control” value (Factor 11 protein; day 64, chronic, lower dose regimen (*)) was 37%. For the same substance, the “Inhibition of Factor 11 protein relative to the PBS control” value (Factor 11 protein; [10]) was 55%, the “Inhibition of Factor 11 protein relative to the PBS control” value (Factor 11 protein; day 71, chronic, lower dose regimen (*)) was 41% and the “Inhibition of Factor 11 protein relative to the PBS control” value (Factor 11 protein; day 71, escalating dose regimen) was 57%. The “Inhibition of Factor 11 protein relative to the PBS control” value (Factor 11 protein; day 78, chronic, lower dose regimen (*)) was 42%, the “Inhibition of Factor 11 protein relative to the PBS control” value (Factor 11 protein; [11]) was 63% and the “Inhibition of Factor 11 protein relative to the PBS control” value (Factor 11 protein; day 85, chronic, lower dose regimen (*)) was 34%. The “Inhibition of Factor 11 protein relative to the PBS control” value (Factor 11 protein; [12]) was 64%, the “Inhibition of Factor 11 protein relative to the PBS control” value (Factor 11 protein; day −5, chronic, lower dose regimen (*)) was 1% and the “Inhibition of Factor 11 protein relative to the PBS control” value (Factor 11 protein; [13]) was 0%. The “Inhibition of Factor 11 protein relative to the PBS control” value (Factor 11 protein; day −14, chronic, lower dose regimen (*)) was 0%, the “Inhibition of Factor 11 protein relative to the PBS control” value (Factor 11 protein; [14]) was 0% and the HCT [1] was 50%. The Lymphocyte [1] was 4710, the Neutrophil [1] was 1314 and the Platelets [1] was 614. For the same substance, the RBC [1] was 9.8, the WBC [1] was 6 and the hemoglobin [1] was 14.8 g/dL. It also gave a body weight ([2]; increase in grams over the PBS control weight taken before the start of treatment) of 12 g, a Kidney weight ([2]; percentage of the body weight) of 1.6% and a Liver weight ([2]; percentage of the body weight) of 6%. The Spleen weight ([2]; percentage of the body weight) was 0.4%, the HCT [3] was 49% and the Lymphocyte [3] was 4004 cells/μL. The Neutrophil [3] was 1144 cells/μL, the Platelets [3] was 916 10^3/μL and the RBC [3] was 10 10^6/μL. For the same substance, the WBC [3] was 5 10^3/μL, the hemoglobin [3] was 15 g/dL and the monocytes [3] was 156 cells/μL. The bleeding time ([4]; day 15, chronic dose regimen (*)) was 149, the bleeding time [4, 5] was 165 and the bleeding time ([4]; day 22, chronic dose regimen (*)) was 143. For the same substance, the bleeding time [4, 6] was 151, the bleeding time ([4]; day 36, chronic dose regimen (*)) was 221 and the bleeding time [4, 7] was 137. It also gave a bleeding time ([4]; day 43, chronic dose regimen (*)) of 156, a bleeding time [4, 8] of 216 and a bleeding time [4, 9] of 195. It also gave a bleeding time [4, 10] of 201, a bleeding time [4, 11] of 203 and a bleeding time [4, 12] of 201. For the same substance, the bleeding time ([4]; day −5, chronic dose regimen (*)) was 93, the bleeding time [4, 13] was 127 and the bleeding time ([4]; day −14, chronic dose regimen (*)) was 177. The bleeding time [4, 14] was 172.

Source: US20230263822A1, “MODULATION OF FACTOR 11 EXPRESSION” (Ionis Pharmaceuticals, Inc., priority 2008, published 2023)
